The subject of the assay is mouse primary cortical neurons, thapsigargin death, survival counting. Briefly: neuroprotection against thapsigargin-induced death, late-stage follow-up, ER stress cell death inhibitors, imaging, mouse primary cortical neurons, immunostaining, death counting (AID 1386). As to conditions: at 25 µM.

Structures are written as SMILES.

With `COc1ccc(C2CC(=O)C3=C(C2)Nc2ccccc2NC3c2cccc(Oc3ccccc3)c2)cc1OC` (configuration not stated), the survival (stronger effect = higher value) is 87% and the survival (measured here: survival without thapsigargin) came to 91%.

The values above are taken from PubChem BioAssay AID1386 (Sanford-Burnham Center for Chemical Genomics, 2008).
